Measurements as given in the supplement of paper PMC10307832.

Experiments:
Assay in all cases: relative viability (nuclei count vs DMSO), 5 days (fraction); higher = more cells survive
MK-2206 + Vorinostat = compound: NC1(c2ccc(-c3nc4ccn5c(=O)[nH]nc5c4cc3-c3ccccc3)cc2)CCC1 [MK-2206] + O=C(CCCCCCC(=O)Nc1ccccc1)NO [Vorinostat] (partner 1 µM)
In short: (§1)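 Dosing by pin tool came one day after lung cancer cell lines were seeded in 1536-well plates, using either one drug or a fixed anchor-drug dose plus five library-drug doses (not always all listed) in √10 steps. After 5 days, nuclei were counted on 4× images. Relative viability is treated-well nuclei count divided by vehicle-well nuclei count, and values are medians of duplicate plates.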

MK-2206 + Crizotinib = compound: NC1(c2ccc(-c3nc4ccn5c(=O)[nH]nc5c4cc3-c3ccccc3)cc2)CCC1 [MK-2206] + C[C@@H](Oc1cc(-c2cnn(C3CCNCC3)c2)cnc1N)c1c(Cl)ccc(F)c1Cl [Crizotinib] (partner 1 µM)
In short: as §1

Pictilisib + OSI-027 = compound: CS(=O)(=O)N1CCN(Cc2cc3nc(-c4cccc5[nH]ncc45)nc(N4CCOCC4)c3s2)CC1 [Pictilisib] + COc1cccc2cc(-c3nc([C@H]4CC[C@H](C(=O)O)CC4)n4ncnc(N)c34)[nH]c12 [OSI-027] (partner 0.5 µM)
In short: as §1

MK-2206 + Luminespib = compound: NC1(c2ccc(-c3nc4ccn5c(=O)[nH]nc5c4cc3-c3ccccc3)cc2)CCC1 [MK-2206] + CCNC(=O)c1noc(-c2cc(C(C)C)c(O)cc2O)c1-c1ccc(CN2CCOCC2)cc1 [Luminespib] (partner 0.01 µM)
In short: as §1

Pictilisib + Tozasertib = compound: CS(=O)(=O)N1CCN(Cc2cc3nc(-c4cccc5[nH]ncc45)nc(N4CCOCC4)c3s2)CC1 [Pictilisib] + Cc1cc(Nc2cc(N3CCN(C)CC3)nc(Sc3ccc(NC(=O)C4CC4)cc3)n2)n[nH]1 [Tozasertib] (partner 0.1 µM)
In short: as §1

Cell Line	relative viability (MK-2206 + Vorinostat; first compound 0.01 µM)	relative viability (MK-2206 + Vorinostat; first compound 0.03162 µM)	relative viability (MK-2206 + Vorinostat; first compound 0.3162 µM)	relative viability (MK-2206 + Vorinostat; first compound 1 µM)	relative viability (MK-2206 + Crizotinib; first compound 0.01 µM)	relative viability (MK-2206 + Crizotinib; first compound 0.03162 µM)	relative viability (MK-2206 + Crizotinib; first compound 0.3162 µM)	relative viability (MK-2206 + Crizotinib; first compound 1 µM)	relative viability (Pictilisib + OSI-027; first compound 0.02 µM)	relative viability (Pictilisib + OSI-027; first compound 0.06325 µM)	relative viability (Pictilisib + OSI-027; first compound 0.6325 µM)	relative viability (Pictilisib + OSI-027; first compound 2 µM)	relative viability (MK-2206 + Luminespib; first compound 0.01 µM)	relative viability (MK-2206 + Luminespib; first compound 0.03162 µM)	relative viability (MK-2206 + Luminespib; first compound 0.3162 µM)	relative viability (MK-2206 + Luminespib; first compound 1 µM)	relative viability (Pictilisib + Tozasertib; first compound 0.02 µM)	relative viability (Pictilisib + Tozasertib; first compound 0.06325 µM)	relative viability (Pictilisib + Tozasertib; first compound 0.6325 µM)	relative viability (Pictilisib + Tozasertib; first compound 2 µM)
LOU-NH91	0.938	0.933	0.887	0.826	0.709	0.727	0.72	0.715	0.747	0.757	0.666	0.464	0.344	0.303	0.32	0.373	0.744	0.664	0.566	0.495
LU99A	0.456	0.529	0.473	0.49	0.609	0.647	0.524	0.535	0.286	0.262	0.263	0.214	0.284	0.251	0.268	0.203	0.338	0.292	0.262	0.163
LXF-289	0.736	0.797	0.867	0.78	0.786	0.819	0.841	0.888	0.817	0.827	0.566	0.397	0.661	0.722	0.728	0.771	0.224	0.215	0.155	0.0896
NCI-H23	0.6	0.508	0.569	0.372	0.563	0.619	0.53	0.543	0.708	0.625	0.392	0.25	0.214	0.215	0.19	0.211	0.326	0.413	0.294	0.35
NCI-H322M	0.844	0.936	0.944	0.977	0.934	0.986	0.941	0.979	0.546	0.538	0.366	0.392	0.91	0.95	0.825	0.882	0.494	0.49	0.4	0.282
NCI-H358	0.659	0.697	0.646	0.729	0.773	0.638	0.563	0.562	0.684	0.664	0.357	0.127	0.0868	0.829	0.234	0.318	0.0959	0.104	0.103	0.0838
NCI-H441	0.76	0.707	0.701	0.565	0.798	0.639	0.612	0.643	0.486	0.552	0.38	0.307	0.31	0.409	0.271	0.262	0.654	0.542	0.527	0.289
NCI-H460	0.677	0.785	0.717	0.599	0.86	0.905	0.855	0.893	0.612	0.576	0.212	0.0454	0.035	0.0282	0.0298	0.024	0.411	0.401	0.28	0.0523
NCI-H520	0.677	0.677	0.337	0.31	0.833	0.741	0.42	0.421	0.239	0.332	0.156	0.171	0.213	0.214	0.203	0.207	0.413	0.412	0.234	0.232
NCI-H596	0.64	0.754	0.604	0.462	0.978	1	0.898	0.736	0.719	0.729	0.353	0.296	0.984	0.919	0.889	0.737	0.822	0.901	0.591	0.356
NCI-H647	0.569	0.429	0.567	0.654	1.03	1.06	1.04	0.897	0.598	0.709	0.403	0.182	0.0812	0.159	0.156	0.126	0.323	0.338	0.291	0.0558
NCI-H650	0.455	0.414	0.345	0.428	0.725	0.72	0.563	0.805	0.563	0.555	0.425	0.321	0.747	0.86	0.897	0.788	0.733	0.76	0.66	0.478
NCI-H661	0.759	0.737	0.767	0.681	0.952	0.911	0.809	0.961	0.687	0.682	0.499	0.261	0.93	0.884	0.968	0.947	0.345	0.354	0.4	0.396
NCI-H727	1.18	1.33	1.25	0.901	0.809	0.903	0.666	0.568	0.741	0.649	0.548	0.333	0.328	0.306	0.337	0.345	0.614	0.542	0.568	0.486
NCI-H838	0.705	0.714	0.647	0.654	0.857	0.812	0.834	0.765	0.328	0.308	0.242	0.189	0.288	0.303	0.244	0.282	0.266	0.218	0.242	0.149
NCI-H1355	0.598	0.667	0.541	0.49	1.07	1.03	1.08	0.914	0.412	0.358	0.232	0.237	0.799	0.689	0.752	0.696	0.582	0.474	0.484	0.183

Cell Line	relative viability (MK-2206 + Vorinostat; first compound 0.01 µM)	relative viability (MK-2206 + Vorinostat; first compound 0.03162 µM)	relative viability (MK-2206 + Vorinostat; first compound 0.3162 µM)	relative viability (MK-2206 + Vorinostat; first compound 1 µM)	relative viability (MK-2206 + Crizotinib; first compound 0.01 µM)	relative viability (MK-2206 + Crizotinib; first compound 0.03162 µM)	relative viability (MK-2206 + Crizotinib; first compound 0.3162 µM)	relative viability (MK-2206 + Crizotinib; first compound 1 µM)	relative viability (Pictilisib + OSI-027; first compound 0.02 µM)	relative viability (Pictilisib + OSI-027; first compound 0.06325 µM)	relative viability (Pictilisib + OSI-027; first compound 0.6325 µM)	relative viability (Pictilisib + OSI-027; first compound 2 µM)	relative viability (MK-2206 + Luminespib; first compound 0.01 µM)	relative viability (MK-2206 + Luminespib; first compound 0.03162 µM)	relative viability (MK-2206 + Luminespib; first compound 0.3162 µM)	relative viability (MK-2206 + Luminespib; first compound 1 µM)	relative viability (Pictilisib + Tozasertib; first compound 0.02 µM)	relative viability (Pictilisib + Tozasertib; first compound 0.06325 µM)	relative viability (Pictilisib + Tozasertib; first compound 0.6325 µM)	relative viability (Pictilisib + Tozasertib; first compound 2 µM)
NCI-H1437	0.879	0.846	0.964	0.821	0.852	0.938	0.914	0.997	0.855	0.685	0.619	0.289	1.13	1.13	0.855	1.27	0.383	0.41	0.324	0.242
NCI-H1650	0.532	0.612	0.656	0.519	0.97	1.04	1.04	0.751	0.677	0.713	0.368	0.207	0.185	0.182	0.215	0.183	0.467	0.401	0.348	0.18
NCI-H1651	0.568	0.583	0.597	0.461	0.878	0.875	0.892	0.884	0.643	0.584	0.565	0.291	0.865	0.888	0.808	0.965	0.637	0.567	0.544	0.286
NCI-H1666	1.03	1.07	1.04	0.916	0.965	1.12	0.789	0.892	0.877	0.858	0.636	0.477	0.961	1.02	1.13	1.01	0.628	0.599	0.627	0.483
NCI-H1734	0.877	0.822	0.629	0.67	0.772	0.725	0.468	0.521	0.552	0.554	0.291	0.224	0.194	0.168	0.193	0.148	0.254	0.275	0.226	0.193
NCI-H1755	0.774	0.698	0.582	0.636	0.875	0.836	0.798	0.727	0.684	0.666	0.41	0.279	0.411	0.636	0.469	0.346	0.548	0.605	0.475	0.356
NCI-H1915	0.567	0.511	0.483	0.534	0.911	0.923	0.874	0.905	0.618	0.616	0.639	0.533	0.86	0.853	0.787	0.72	0.433	0.432	0.405	0.308
NCI-H1944	0.536	0.547	0.556	0.433	1.16	1.16	1.02	1.07	0.403	0.345	0.249	0.179	0.729	0.806	0.685	0.676	0.254	0.234	0.195	0.148
NCI-H1975	0.712	0.63	0.572	0.522	0.96	0.866	0.855	0.894	0.867	0.574	0.234	0.212	0.126	0.199	0.204	0.144	0.821	0.691	0.361	0.107
NCI-H1993	0.765	0.962	0.611	0.504	0.842	0.86	0.729	0.68	0.514	0.47	0.592	0.646	0.44	0.827	0.671	0.565	0.483	0.567	0.5	0.529
NCI-H2009	0.759	0.739	0.708	0.766	1.04	1.05	1.12	1.04	0.656	0.583	0.319	0.188	1.01	0.992	1.06	1.01	0.719	0.736	0.75	0.461
NCI-H2023	0.54	0.428	0.431	0.391	0.614	0.686	0.481	0.387	0.385	0.33	0.151	0.0847	0.681	0.66	0.619	0.413	0.416	0.403	0.197	0.0836
NCI-H2085	0.693	0.754	0.751	0.653	0.887	0.888	0.876	0.724	0.706	0.802	0.303	0.284	0.508	0.393	0.489	0.384	0.765	0.733	0.52	0.3
NCI-H2087	0.469	1.1	0.791	0.862	0.777	0.889	0.749	0.835	0.503	0.446	0.32	0.237	0.158	0.155	0.187	0.128	0.232	0.228	0.168	0.187
NCI-H2126	0.718	0.789	0.608	0.623	1.01	1.02	1.01	0.979	0.706	0.75	0.541	0.427	0.9	0.877	0.856	0.752	0.826	0.807	0.73	0.517
